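These data come from cells grown in 96-well plates and exposed to compound for 48 hours at five concentrations. TGI: total growth inhibition.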
How the values were obtained:
Test in all cases: NCI tumour cell line growth inhibition, 48 h
[1] = system: 786-0 renal
[2] = system: A498 renal
[3] = system: A549 NSCLC
[4] = system: ACHN renal
[5] = system: CAKI-1 renal
[6] = system: CCRF-CEM leukemia
[7] = system: COLO 205 colon
[8] = system: DLD-1 colon
[9] = system: DMS 114 small cell lung
[10] = system: DMS 273 small cell lung
[11] = system: EKVX NSCLC
[12] = system: HCC-2998 colon
[13] = system: HCT-116 colon
[14] = system: HCT-15 colon
[15] = system: HL-60(TB) leukemia
[16] = system: HOP-18 NSCLC
[17] = system: HOP-62 NSCLC
[18] = system: HOP-92 NSCLC
[19] = system: HT29 colon
[20] = system: IGROV1 ovarian
[21] = system: K-562 leukemia
[22] = system: KM12 colon
[23] = system: KM20L2 colon
[24] = system: LOX IMVI melanoma
[25] = system: LXFL 529 NSCLC
[26] = system: M14 melanoma
[27] = system: M19-MEL melanoma
[28] = system: MALME-3M melanoma
[29] = system: MOLT-4 leukemia
[30] = system: NCI-H226 lung
[31] = system: NCI-H23 lung
[32] = system: NCI-H460 lung
[33] = system: NCI-H522 lung
[34] = system: OVCAR-3 ovarian
[35] = system: OVCAR-4 ovarian
[36] = system: OVCAR-5 ovarian
[37] = system: OVCAR-8 ovarian
[38] = system: RPMI-8226 leukemia
[39] = system: RXF 393 renal
[40] = system: SF-268 CNS
[41] = system: SF-295 CNS
[42] = system: SF-539 CNS
[43] = system: SK-MEL-2 melanoma
[44] = system: SK-MEL-28 melanoma
[45] = system: SK-MEL-5 melanoma
[46] = system: SK-OV-3 ovarian
[47] = system: SN12C renal
[48] = system: SNB-19 CNS
[49] = system: SNB-75 CNS
[50] = system: SNB-78 CNS
[51] = system: SR leukemia
[52] = system: SW-620 colon
[53] = system: TK-10 renal
[54] = system: U251 CNS
[55] = system: UACC-257 melanoma
[56] = system: UACC-62 melanoma
[57] = system: UO-31 renal
[58] = system: XF 498 CNS

## Cc1cccc(C)c1NC(=O)CCc1nnc2s/c(=C\c3ccc(Cl)cc3)c(=O)n12
[1]
  TGI: > 100 µM
[2]
  TGI: > 100 µM
[3]
  TGI: > 100 µM
[4]
  TGI: > 100 µM
[5]
  TGI: > 100 µM
[6]
  TGI: > 100 µM
[7]
  TGI: > 100 µM
[8]
  TGI: > 100 µM
[9]
  TGI: > 100 µM
[10]
  TGI: > 100 µM
[11]
  TGI: > 100 µM
[12]
  TGI: > 100 µM
[13]
  TGI: 57.2 µM
[14]
  TGI: 36.2 µM
[15]
  TGI: > 100 µM
[16]
  TGI: > 100 µM
[17]
  TGI: > 100 µM
[18]
  TGI: > 100 µM
[19]
  TGI: > 100 µM
[20]
  TGI: > 100 µM
[21]
  TGI: > 100 µM
[22]
  TGI: > 100 µM
[23]
  TGI: > 100 µM
[24]
  TGI: > 100 µM
[25]
  TGI: > 100 µM
[26]
  TGI: > 100 µM
[27]
  TGI: > 100 µM
[28]
  TGI: > 100 µM
[29]
  TGI: > 100 µM
[30]
  TGI: > 100 µM
[31]
  TGI: > 100 µM
[32]
  TGI: > 100 µM
[33]
  TGI: > 100 µM
[34]
  TGI: > 100 µM
[35]
  TGI: > 100 µM
[36]
  TGI: > 100 µM
[37]
  TGI: > 100 µM
[38]
  TGI: > 100 µM
[39]
  TGI: > 100 µM
[40]
  TGI: > 100 µM
[41]
  TGI: > 100 µM
[42]
  TGI: > 100 µM
[43]
  TGI: > 100 µM
[44]
  TGI: > 100 µM
[45]
  TGI: > 100 µM
[46]
  TGI: > 100 µM
[47]
  TGI: > 100 µM
[48]
  TGI: > 100 µM
[49]
  TGI: > 100 µM
[50]
  TGI: > 100 µM
[51]
  TGI: > 100 µM
[52]
  TGI: 40.2 µM
[53]
  TGI: > 100 µM
[54]
  TGI: > 100 µM
[55]
  TGI: > 100 µM
[56]
  TGI: > 100 µM
[57]
  TGI: > 100 µM
[58]
  TGI: > 100 µM

## COC(=O)C12CC(c3ccccc31)C1C(=O)OC(=O)C12 (stereo not given)
[1]
  TGI: > 100 µM
[3]
  TGI: > 100 µM
[4]
  TGI: > 100 µM
[6]
  TGI: > 100 µM
[7]
  TGI: > 100 µM
[8]
  TGI: > 100 µM
[9]
  TGI: > 100 µM
[10]
  TGI: > 100 µM
[11]
  TGI: > 100 µM
[12]
  TGI: > 100 µM
[13]
  TGI: > 100 µM
[14]
  TGI: > 100 µM
[15]
  TGI: > 100 µM
[17]
  TGI: > 100 µM
[18]
  TGI: > 100 µM
[19]
  TGI: > 100 µM
[20]
  TGI: > 100 µM
[21]
  TGI: > 100 µM
[22]
  TGI: > 100 µM
[23]
  TGI: > 100 µM
[24]
  TGI: > 100 µM
[25]
  TGI: > 100 µM
[26]
  TGI: > 100 µM
[27]
  TGI: > 100 µM
[28]
  TGI: > 100 µM
[29]
  TGI: > 100 µM
[31]
  TGI: > 100 µM
[32]
  TGI: > 100 µM
[33]
  TGI: > 100 µM
[34]
  TGI: > 100 µM
[35]
  TGI: > 100 µM
[36]
  TGI: > 100 µM
[37]
  TGI: > 100 µM
[38]
  TGI: > 100 µM
[39]
  TGI: > 100 µM
[40]
  TGI: > 100 µM
[41]
  TGI: > 100 µM
[42]
  TGI: > 100 µM
[43]
  TGI: > 100 µM
[44]
  TGI: > 100 µM
[45]
  TGI: > 100 µM
[47]
  TGI: > 100 µM
[48]
  TGI: > 100 µM
[49]
  TGI: > 100 µM
[50]
  TGI: > 100 µM
[52]
  TGI: > 100 µM
[53]
  TGI: > 100 µM
[54]
  TGI: > 100 µM
[55]
  TGI: > 100 µM
[56]
  TGI: > 100 µM
[57]
  TGI: > 100 µM
[58]
  TGI: > 100 µM
